Measured values published in patent publication US20230210797A1, “PREVENTING AND TREATING HYPOGLYCEMIA” (DIAMYD MEDICAL AB, priority 2019, published 2023).
Entries after “also recorded” stand apart in the source; their conditions may differ.

What was measured:
cortisol = assay: Hypoglycemic clamp: plasma cortisol levels; type: in vivo, human; details: for Cortisol levels, Change from baseline, Mean (SD) / Cortisol levels, Change from baseline, Median (Min, Max) / Cortisol levels, Observed value, Mean (SD) / Cortisol levels, Observed value, Median (Min, Max): C-peptide undetectable
Method: (§1) In order to evaluate the counterregulatory hormone response to hypoglycemia, a hypoglycemic clamp will be performed. The Hypoglycemic Clamp must be performed according to the instructions in the Operations Manual. (Appendix 3)
(§2) The patient should: • Come to the study site following an overnight fast (>10 hours), i.e. the patient may not eat but is permitted to drink water • Not have taken the Remygen and, if applicable, Alprazolam dose in the morning • Not take short acting/direct acting insulin within 6 hours before the investigation. • The patient is allowed to take base-insulin day/night before, but not in the morning before the investigation.
(§3) Patients with CSII (insulin pump) must continue with their basal dose insulin, but not add bolus dose during the last 6 hours before the investigation.
(§4) If a patient has a blood sugar level <4 mmol/L in the morning of the scheduled visit, the patient is allowed to take dextrose tablets and then come to the study site. The patient is allowed to perform the investigation if the blood sugar level is >4 mmol/L.
(§5) In the dose-escalation part of the study, the patient will take study drug 30 min prior to start of the hypoglycemic clamp. In the main study, the study drug will instead be taken after finalization of the hypoglycemic clamp. Baseline blood samples will be obtained for glucose, glucagon, epinephrine, norepinephrine, growth hormone and cortisol. The clamp will then be initiated by an intravenous insulin infusion at a rate of 2 mU×kg^−1×min^−1. Glucose 100 mg/ml will then be administered in variable infusion rates to clamp the blood glucose concentration at 5.5 mmol/land then at 2.5 mmol/land kept stable for 30 min. Blood glucose will be evaluated repeatedly in order to find the optimal glucose infusion rate. Blood sampling to determined levels of counterregulatory hormones as described above will be performed at each of these target levels when a stable glucose concentration has been reached. The insulin infusion will thereafter be terminated and the patient is allowed to eat and will be observed until normoglycemia is achieved. If necessary, additional glucose administration will be given to allow blood glucose concentrations to normalize.
Only patients with c-peptide levels that were undetectable (in a standard assay, i.e. <0.01 nmol/L) are included (5 of 6) in the data below.
Plasma levels of glucagon, cortisol, epinephrine, growth hormone and glucose were measured at baseline (increased glucose in T1D subjects). Plasma glucose was first lowered to normoglycemic levels (5.5 mmol/L) and hormone levels monitored, and then to hypoglycemic levels (2.5 mmol/L) and hormone levels monitored. Difference was calculated as a measurement of the response to hypoglycemia.

growth hormone = assay: Hypoglycemic clamp: plasma growth hormone levels; type: in vivo, human; details: for Growth hormone levels, change from baseline, Mean / Growth hormone levels, change from baseline, Median / Growth hormone levels, observed value, Mean / Growth hormone levels, observed value, Median: C-peptide undetectable, n=5
Method: as §1, §2, §3, §4, §5
Plasma glucose was first lowered to normoglycemic levels (5.5 mmol/L) and hormone levels monitored, and then to hypoglycemic levels (2.5 mmol/L) and hormone levels monitored. Difference was calculated as a measurement of the response to hypoglycemia.

[1] = Visit 5, 200 mg GABA per day, Event 2.5 mmol/L
[2] = Visit 5, 200 mg GABA per day, Event 5.5 mmol/L
[3] = Visit 5, 200 mg GABA per day, Event Baseline
[4] = Visit 5, 200 mg GABA per day, Event Diff 2.5-5.5 mmol/L
[5] = Visit 7, 600 mg GABA per day, Event 2.5 mmol/L
[6] = Visit 7, 600 mg GABA per day, Event 5.5 mmol/L
[7] = Visit 7, 600 mg GABA per day, Event Baseline
[8] = Visit 7, 600 mg GABA per day, Event Diff 2.5-5.5 mmol/L
[9] = Visit 9, 1200 mg GABA per day, Event 2.5 mmol/L
[10] = Visit 9, 1200 mg GABA per day, Event 5.5 mmol/L
[11] = Visit 9, 1200 mg GABA per day, Event Baseline
[12] = Visit 9, 1200 mg GABA per day, Event Diff 2.5-5.5 mmol/L
[13] = change in levels when clamping to 2.5 mmol/L from 5.5 mmol/L
[14] = Visit 5, 200 mg GABA per day, event 2.5 mmol/L
[15] = Visit 5, 200 mg GABA per day, event 5.5 mmol/L
[16] = Visit 5, 200 mg GABA per day, event Baseline
[17] = Visit 5, 200 mg GABA per day, event Diff 2.5-5.5 mmol/L
[18] = Visit 7, 600 mg GABA per day, event 2.5 mmol/L
[19] = Visit 7, 600 mg GABA per day, event 5.5 mmol/L
[20] = Visit 7, 600 mg GABA per day, event Baseline
[21] = Visit 7, 600 mg GABA per day, event Diff 2.5-5.5 mmol/L
[22] = Visit 9, 1200 mg GABA per day, event 2.5 mmol/L
[23] = Visit 9, 1200 mg GABA per day, event 5.5 mmol/L
[24] = Visit 9, 1200 mg GABA per day, event Baseline
[25] = Visit 9, 1200 mg GABA per day, event Diff 2.5-5.5 mmol/L

NCCCC(=O)O [GABA, Gamma-amino butyric acid]
Cortisol levels, Change from baseline, Mean (SD) (cortisol; [1]): 49.6 nmol/L
Cortisol levels, Change from baseline, Median (Min, Max) (cortisol; [1]): 40.0 nmol/L
Cortisol levels, Observed value, Mean (SD) (cortisol; [1]): 356.2 nmol/L
Cortisol levels, Observed value, Median (Min, Max) (cortisol; [1]): 334.0 nmol/L
Cortisol levels, Change from baseline, Mean (SD) (cortisol; [2]): -141.8 nmol/L
Cortisol levels, Change from baseline, Median (Min, Max) (cortisol; [2]): -179.0 nmol/L
Cortisol levels, Observed value, Mean (SD) (cortisol; [2]): 198.8 nmol/L
Cortisol levels, Observed value, Median (Min, Max) (cortisol; [2]): 176.0 nmol/L
Cortisol levels, Change from baseline, Mean (SD) (cortisol; [3]): -198.8 nmol/L
Cortisol levels, Change from baseline, Median (Min, Max) (cortisol; [3]): -196.0 nmol/L
Cortisol levels, Observed value, Mean (SD) (cortisol; [3]): 215.0 nmol/L
Cortisol levels, Observed value, Median (Min, Max) (cortisol; [3]): 213.0 nmol/L
Cortisol levels, Change from baseline, Mean (SD) (cortisol; [4]): 191.4 nmol/L
Cortisol levels, Change from baseline, Median (Min, Max) (cortisol; [4]): 125.0 nmol/L
Cortisol levels, Observed value, Mean (SD) (cortisol; [4]): 157.4 nmol/L
Cortisol levels, Observed value, Median (Min, Max) (cortisol; [4]): 162.0 nmol/L
Cortisol levels, Change from baseline, Mean (SD) (cortisol; [5]): 51.8 nmol/L
Cortisol levels, Change from baseline, Median (Min, Max) (cortisol; [5]): 36.0 nmol/L
Cortisol levels, Observed value, Mean (SD) (cortisol; [5]): 358.4 nmol/L
Cortisol levels, Observed value, Median (Min, Max) (cortisol; [5]): 360.0 nmol/L
Cortisol levels, Change from baseline, Mean (SD) (cortisol; [6]): -157.0 nmol/L
Cortisol levels, Change from baseline, Median (Min, Max) (cortisol; [6]): -185.0 nmol/L
Cortisol levels, Observed value, Mean (SD) (cortisol; [6]): 183.6 nmol/L
Cortisol levels, Observed value, Median (Min, Max) (cortisol; [6]): 166.0 nmol/L
Cortisol levels, Change from baseline, Mean (SD) (cortisol; [7]): -222.6 nmol/L
Cortisol levels, Change from baseline, Median (Min, Max) (cortisol; [7]): -217.0 nmol/L
Cortisol levels, Observed value, Mean (SD) (cortisol; [7]): 191.2 nmol/L
Cortisol levels, Observed value, Median (Min, Max) (cortisol; [7]): 189.0 nmol/L
Cortisol levels, Change from baseline, Mean (SD) (cortisol; [8]): 208.8 nmol/L
Cortisol levels, Change from baseline, Median (Min, Max) (cortisol; [8]): 141.0 nmol/L
Cortisol levels, Observed value, Mean (SD) (cortisol; [8]): 174.8 nmol/L
Cortisol levels, Observed value, Median (Min, Max) (cortisol; [8]): 194.0 nmol/L
Cortisol levels, Change from baseline, Mean (SD) (cortisol; [9]): 6.6 nmol/L
Cortisol levels, Change from baseline, Median (Min, Max) (cortisol; [9]): 29.0 nmol/L
Cortisol levels, Observed value, Mean (SD) (cortisol; [9]): 313.2 nmol/L
Cortisol levels, Observed value, Median (Min, Max) (cortisol; [9]): 285.0 nmol/L
Cortisol levels, Change from baseline, Mean (SD) (cortisol; [10]): -117.2 nmol/L
Cortisol levels, Change from baseline, Median (Min, Max) (cortisol; [10]): -115.0 nmol/L
Cortisol levels, Observed value, Mean (SD) (cortisol; [10]): 223.4 nmol/L
Cortisol levels, Observed value, Median (Min, Max) (cortisol; [10]): 193.0 nmol/L
Cortisol levels, Change from baseline, Mean (SD) (cortisol; [11]): -196.0 nmol/L
Cortisol levels, Change from baseline, Median (Min, Max) (cortisol; [11]): -191.0 nmol/L
Cortisol levels, Observed value, Mean (SD) (cortisol; [11]): 217.8 nmol/L
Cortisol levels, Observed value, Median (Min, Max) (cortisol; [11]): 226.0 nmol/L
Cortisol levels, Change from baseline, Mean (SD) (cortisol; [12]): 123.8 nmol/L
Cortisol levels, Change from baseline, Median (Min, Max) (cortisol; [12]): 83.0 nmol/L
Cortisol levels, Observed value, Mean (SD) (cortisol; [12]): 89.8 nmol/L
Cortisol levels, Observed value, Median (Min, Max) (cortisol; [12]): -10.0 nmol/L
Counter regulatory response of Cortisol, effect of GABA treatment (cortisol; [13]): increased
Normoglycemic levels of Cortisol, effect of GABA treatment (cortisol; clamped to 5.5 mmol/L): decrease
Baseline (no clamp) Cortisol levels, effect of GABA treatment (cortisol; dose escalation part, oral GABA, type 1 diabetes patients with undetectable c-peptide): downregulated; also recorded: decrease
Growth hormone levels, change from baseline, Mean (growth hormone; [14]): 4.560 µg/L
Growth hormone levels, change from baseline, Median (growth hormone; [14]): 3.400 µg/L
Growth hormone levels, observed value, Mean (growth hormone; [14]): 11.632 µg/L
Growth hormone levels, observed value, Median (growth hormone; [14]): 4.000 µg/L
Growth hormone levels, change from baseline, Mean (growth hormone; [15]): -0.802 µg/L
Growth hormone levels, change from baseline, Median (growth hormone; [15]): 0.000 µg/L
Growth hormone levels, observed value, Mean (growth hormone; [15]): 2.110 µg/L
Growth hormone levels, observed value, Median (growth hormone; [15]): 0.070 µg/L
Growth hormone levels, change from baseline, Mean (growth hormone; [16]): 0.475 µg/L
Growth hormone levels, change from baseline, Median (growth hormone; [16]): 0.035 µg/L
Growth hormone levels, observed value, Mean (growth hormone; [16]): 0.630 µg/L
Growth hormone levels, observed value, Median (growth hormone; [16]): 0.080 µg/L
Growth hormone levels, change from baseline, Mean (growth hormone; [17]): 5.362 µg/L
Growth hormone levels, change from baseline, Median (growth hormone; [17]): 4.000 µg/L
Growth hormone levels, observed value, Mean (growth hormone; [17]): 9.522 µg/L
Growth hormone levels, observed value, Median (growth hormone; [17]): 3.440 µg/L
Growth hormone levels, change from baseline, Mean (growth hormone; [18]): 10.068 µg/L
Growth hormone levels, change from baseline, Median (growth hormone; [18]): 9.000 µg/L
Growth hormone levels, observed value, Mean (growth hormone; [18]): 17.140 µg/L
Growth hormone levels, observed value, Median (growth hormone; [18]): 11.700 µg/L
Growth hormone levels, change from baseline, Mean (growth hormone; [19]): -1.812 µg/L
Growth hormone levels, change from baseline, Median (growth hormone; [19]): -0.340 µg/L
Growth hormone levels, observed value, Mean (growth hormone; [19]): 1.100 µg/L
Growth hormone levels, observed value, Median (growth hormone; [19]): 0.160 µg/L
Growth hormone levels, change from baseline, Mean (growth hormone; [20]): 2.098 µg/L
Growth hormone levels, change from baseline, Median (growth hormone; [20]): 0.090 µg/L
Growth hormone levels, observed value, Mean (growth hormone; [20]): 2.253 µg/L
Growth hormone levels, observed value, Median (growth hormone; [20]): 0.140 µg/L
Growth hormone levels, change from baseline, Mean (growth hormone; [21]): 11.880 µg/L
Growth hormone levels, observed value, Mean (growth hormone; [21]): 16.040 µg/L
Growth hormone levels, observed value, Median (growth hormone; [21]): 10.820 µg/L
Growth hormone levels, change from baseline, Mean (growth hormone; [22]): 7.388 µg/L
Growth hormone levels, change from baseline, Median (growth hormone; [22]): 7.900 µg/L
Growth hormone levels, observed value, Mean (growth hormone; [22]): 14.460 µg/L
Growth hormone levels, observed value, Median (growth hormone; [22]): 14.000 µg/L
Growth hormone levels, change from baseline, Mean (growth hormone; [23]): -1.468 µg/L
Growth hormone levels, change from baseline, Median (growth hormone; [23]): -0.210 µg/L
Growth hormone levels, observed value, Mean (growth hormone; [23]): 1.444 µg/L
Growth hormone levels, observed value, Median (growth hormone; [23]): 0.170 µg/L
Growth hormone levels, change from baseline, Median (growth hormone; [24]): 0.100 µg/L
Growth hormone levels, observed value, Mean (growth hormone; [24]): 0.461 µg/L
Growth hormone levels, observed value, Median (growth hormone; [24]): 0.170 µg/L
Growth hormone levels, change from baseline, Mean (growth hormone; [25]): 8.856 µg/L
Growth hormone levels, change from baseline, Median (growth hormone; [25]): 6.900 µg/L
Growth hormone levels, observed value, Mean (growth hormone; [25]): 13.016 µg/L
Growth hormone levels, observed value, Median (growth hormone; [25]): 8.600 µg/L
Counter regulatory response of Growth hormone, effect of GABA treatment (growth hormone; [13]): increased
Normoglycemic levels of Growth hormone, effect of GABA treatment (growth hormone; clamped to 5.5 mmol/L): decrease
